According to PubChem BioAssay AID1963970 (Molecular Pharmacology Branch, DTP, NCI, 2024):
pIC50: −log10 of the molar value.

Test system: 931267-113-T-J1-PDC multicell spheroid viability
Assay: Anticancer human tumor 931267-113-T-J1-PDC patient-derived colon adenocarcinoma cell line growth inhibition [PI3K]
Settings: for pIC50: curve of first compound; for viability, T/C: stronger effect = lower value
Excerpt: Combinatorial screen of targeted agents with the PI3K inhibitors inavolisib, alpelisib, duvelisib, and copanlisib in multi-cell type tumor spheroids
A high-throughput screen of multi-cell type tumor spheroids was designed to identify active combinations of targeted small molecules and PI3K pathway inhibitors. Complex spheroids include a stromal component modeled by human endothelial cells (HUVEC) and fibroblasts modeled by human mesenchymal stem cells (MSCs). The concentration ranges selected for each drug and investigational agent were based upon clinically achievable concentrations if the clinical Cmax of the agent was known.
Compounds. The drugs and investigational agents: inavolisib (NSC800729), alpelisib (NSC765974), duvelisib (NSC772469), copanlisib (NSC816437), ipatasertib (NSC767898), afuresertib (NSC778305), talazoparib (NSC767125), sapanisertib (NSC764658), selumetinib (NSC741078), tovorafenib (DAY101, NSC766906), vemurafenib (NSC761431), ravoxertinib (NSC781343), sotorasib (NSC818433), MRTX1133 (NSC 836407), abemaciclib (NSC 768073), palbociclib (NSC758247), venetoclax (NSC 766270), SY5609 (NSC837396), enzalutamide (NSC755605), and darolutamide (NSC825331), were obtained from the National Cancer Institute (NCI) Developmental Therapeutics Program Chemical Repository. The FDA-approved anticancer drug set is available from the NCI Developmental Therapeutics Program. […] The stock solutions were prepared in dimethyl sulfoxide (DMSO, Sigma-Aldrich, St. Louis, MO, cat. D2650) at 800-fold the tested concentration and stored at -70 degrees C prior to their use. All drugs and investigational agents were tested over a range starting from a high concentration at or near the clinical Cmax and decreasing in half-log increments. If the clinical Cmax for an agent had not been determined, the highest concentration tested was 10 microM.
Cell Culture. All cells were maintained in an incubator at 37 degrees C and 5% CO2 with 95% humidity. The PDC lines were cultured according to standard operating procedures established by the NCI PDMR (https://pdmr.cancer.gov/sops/default.htm). All PDCs were thawed and cultured in Matrigel-coated flasks prepared with a working solution of 1X Ham's F-12 nutrient mix, without supplementation (Invitrogen, Waltham, MA, cat. 11765054), 100 U/mL penicillin-streptomycin (Invitrogen, cat. 15140122), and 2.5% Matrigel (Corning Inc., Corning, NY, cat. 354248) for the first three passages. The 354836-022-R-J1-PDC, 475296-252-R-J1-PDC, and 997726-040-R-J2-PDC lines were cultured in 6A media, which includes advanced DMEM/F-12 (Thermo Fisher Scientific, cat. 12634028), 10 mM HEPES (Thermo Fisher Scientific, cat. 15630080), 1X GlutaMAX supplement (Thermo Fisher Scientific, cat. 35050061), 0.1 mg/mL primocin (InvivoGen, San Diego, CA, cat. ant-pm-2), 10% defined fetal bovine serum, heat inactivated (HyClone Laboratories Inc., Logan, UT, cat. SH30070.03HI), 50% L-WRN conditioned media (ATCC, cat. CRL-3276), 1.25 mM N-Acetyl-L-cysteine (Sigma-Aldrich, cat. A9165), 10 mM nicotinamide (Sigma-Aldrich, cat. N0636), 1X B-27 supplement (Thermo Fisher Scientific, cat. 17504044), 1X N-2 supplement (Thermo Fisher Scientific, cat. 17502048), and 10 microM Y-27632 dihydrochloride (Tocris Bioscience, Bristol, United Kingdom, cat. 1254). The 624824-186-R-J2-PDC line was cultured in 6C/Colon 1B media, which includes all 6A media components plus 50 ng/mL human EGF recombinant protein (Thermo Fisher Scientific, cat. PHG0311). […]
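Note: viability read 7 days after compound addition.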

Compound: CC(=O)c1c(C)c2cnc(Nc3ccc(N4CCNCC4)cn3)nc2n(C2CCCC2)c1=O + CC(Nc1ccc2c(c1)OCCn1cc(N3C(=O)OCC3C(F)F)nc1-2)C(N)=O
- pIC50 (second compound 0.00316 µM): < 7.00
- pIC50 (second compound 0.01 µM): < 7.00
- pIC50 (second compound 0.0316 µM): < 7.00
- pIC50 (second compound 0.1 µM): < 7.00
- pIC50 (second compound 0.316 µM): < 7.00
- pIC50 (second compound 1 µM): < 7.00
- viability, T/C (second compound 0.00316 µM, first compound 0.000316 µM): 104%
- viability, T/C (second compound 0.00316 µM, first compound 0.001 µM): 110%
- viability, T/C (second compound 0.00316 µM, first compound 0.00316 µM): 95.1%
- viability, T/C (second compound 0.00316 µM, first compound 0.01 µM): 111%
- viability, T/C (second compound 0.00316 µM, first compound 0.0316 µM): 105%
- viability, T/C (second compound 0.00316 µM, first compound 0.1 µM): 99.8%
- viability, T/C (second compound 0.01 µM, first compound 0.000316 µM): 111%
- viability, T/C (second compound 0.01 µM, first compound 0.001 µM): 101%
- viability, T/C (second compound 0.01 µM, first compound 0.00316 µM): 98.7%
- viability, T/C (second compound 0.01 µM, first compound 0.01 µM): 93.3%
- viability, T/C (second compound 0.01 µM, first compound 0.0316 µM): 108%
- viability, T/C (second compound 0.01 µM, first compound 0.1 µM): 105%
- viability, T/C (second compound 0.0316 µM, first compound 0.000316 µM): 108%
- viability, T/C (second compound 0.0316 µM, first compound 0.001 µM): 93.5%
- viability, T/C (second compound 0.0316 µM, first compound 0.00316 µM): 91.9%
- viability, T/C (second compound 0.0316 µM, first compound 0.01 µM): 106%
- viability, T/C (second compound 0.0316 µM, first compound 0.0316 µM): 110%
- viability, T/C (second compound 0.0316 µM, first compound 0.1 µM): 95.4%
- viability, T/C (second compound 0.1 µM, first compound 0.000316 µM): 100%
- viability, T/C (second compound 0.1 µM, first compound 0.001 µM): 97.7%
- viability, T/C (second compound 0.1 µM, first compound 0.00316 µM): 92.7%
- viability, T/C (second compound 0.1 µM, first compound 0.01 µM): 87.1%
- viability, T/C (second compound 0.1 µM, first compound 0.0316 µM): 105%
- viability, T/C (second compound 0.1 µM, first compound 0.1 µM): 87.8%
- viability, T/C (second compound 0.316 µM, first compound 0.000316 µM): 92.1%
- viability, T/C (second compound 0.316 µM, first compound 0.001 µM): 88.1%
- viability, T/C (second compound 0.316 µM, first compound 0.00316 µM): 81%
- viability, T/C (second compound 0.316 µM, first compound 0.01 µM): 85.7%
- viability, T/C (second compound 0.316 µM, first compound 0.0316 µM): 91.6%
- viability, T/C (second compound 0.316 µM, first compound 0.1 µM): 82.2%
- viability, T/C (second compound 1 µM, first compound 0.000316 µM): 75.9%
- viability, T/C (second compound 1 µM, first compound 0.001 µM): 74%
- viability, T/C (second compound 1 µM, first compound 0.00316 µM): 77.8%
- viability, T/C (second compound 1 µM, first compound 0.01 µM): 70.5%
- viability, T/C (second compound 1 µM, first compound 0.0316 µM): 80.1%
- viability, T/C (second compound 1 µM, first compound 0.1 µM): 66.3%
